Data: patent publication US20150250166A1, “NOOTKATONE AS AN INSECTICIDE AND INSECT REPELLENT” (ALLYLIX, INC., priority 2012, published 2015)

Tested on: adult cat fleas (Ctenocephalides felis)
Assay: Cat flea repellency, treated versus untreated paper towel halves in payliner
Type: in vivo
Details: for Percent Repellency (corrected for isopropanol control) / cat fleas on 10% Nootkatone-treated paper towel, average count of five trials (of 10): 10% nootkatone, 0.1% BHT in isopropanol
Method: A formulation, containing 10% nootkatone, 0.1% butylated hydroxytoluene (BHT) in isopropanol was tested for efficacy for repelling adult cat fleas (Ctenocephalides felis). Equal amounts of 10% nootkatone solution, stored at ambient temperature and humidity, were applied to five semi-circular pieces of paper towels, arranged so that they were evenly spaced on a sheet of aluminum foil, until sufficiently wet to the touch. Five untreated semi-circular pieces were marked with the letter “c”, for control, on both sides in pencil or solvent resistant ink. Each of the semi-circular pieces of paper towel had the diameter of a 5-gallon payliner. Immediately after spraying the paper towels with the nootkatone solution, the treated towels were placed in 5 5-gallon payliners. The untreated semi-circular paper towels were also placed in the payliners, with the flat sides of the semi-circle side-by-side with those of the treated pieces, so that the bottoms of the payliners were completely covered with paper towel, half treated and half untreated. Five additional payliners with one semi-circular paper towel treated with isopropyl alcohol and the other untreated served as controls. A 9 dram vial, containing 10 cat fleas (El Labs Inc (Soquel, Calif.)) was emptied onto each of the untreated paper towels in the payliners (total of 10 payliners). The distribution of the cat fleas on the control vs. treated paper towels was recorded at 0.5, 1, 1.5, 2, and 24 hours. Observations were made quietly to minimize the disturbance to the fleas by the observer. The containers were kept at ambient temperature and humidity for the duration of the study. The repellency was calculated from the following equation: R=[(C−T)/C]*100, where R is the % repellency, C is the fraction of fleas on the isopropanol-treated paper towel pieces, and T is the fraction of fleas on the nootkatone-treated paper towel pieces.

With `C=C(C)[C@@H]1CCC2=CC(=O)C[C@@H](C)[C@]2(C)C1` [nootkatone, 4,4a,5,6,7,8-hexahydro-6-isopropenyl-4,4a-dimethyl-2(3H)-naphtalenone] the “cat flea repellency, in words” value (10% nootkatone in isopropyl alcohol) was “does not repel cat fleas”, the “Percent Repellency (corrected for isopropanol control)” value (shortened to “Percent Repellency”) (0.5 hr) was −40.0% and the “cat fleas on 10% Nootkatone-treated paper towel, average count of five trials (of 10)” value (0.5 hr) was 5.6. For the same compound, the “Percent Repellency” value (1 hr) was 9.5%, the “cat fleas on 10% Nootkatone-treated paper towel, average count of five trials (of 10)” value (1 hr) was 3.8 and the “Percent Repellency” value (1.5 hr) was 9.5%. The “cat fleas on 10% Nootkatone-treated paper towel, average count of five trials (of 10)” value (1.5 hr) was 3.8, the “Percent Repellency” value (2 hr) was 20.0% and the “cat fleas on 10% Nootkatone-treated paper towel, average count of five trials (of 10)” value (2 hr) was 3.2. The “Percent Repellency” value (24 hr) was 38.9% and the “cat fleas on 10% Nootkatone-treated paper towel, average count of five trials (of 10)” value (24 hr) was 2.2.
